Measured values as given in ChEMBL document CHEMBL4715849, “Recent Progress in the Discovery of Antifungal Agents Targeting the Cell Wall” (J Med Chem, 2020).
≈ marks a conversion by molar mass, not a printed value.

Key:
[1] = tested on: Candida tropicalis; assay: Antifungal activity against Candida tropicalis 85-5 incubated for 24 hrs by broth microdilution method; assay type: functional
[2] = tested on: Candida albicans; assay: Antifungal activity against Candida albicans IAM 888 incubated for 24 hrs by broth microdilution method; assay type: functional
[3] = tested on: Candida albicans; assay: Antifungal activity against Candida albicans A9540 incubated for 24 hrs by broth microdilution method; assay type: functional
[4] = tested on: Candida albicans; assay: Antifungal activity against Candida albicans 83-2-14 incubated for 24 hrs by broth microdilution method; assay type: functional
[5] = tested on: Candida albicans; assay: Antifungal activity against Candida albicans ATCC 32354 incubated for 24 hrs by broth microdilution method; assay type: functional
[6] = tested on: Candida tropicalis; assay: Antifungal activity against Candida tropicalis IFO10241 incubated for 24 hrs by broth microdilution method; assay type: functional
[7] = Inhibition of Candida albicans AMB-25 glucosamine-6-phosphate synthase using glutamine as substrate incubated for 30 mins
[8] = Competitive inhibition of Candida albicans AMB-25 glucosamine synthetase using glutamine as substrate incubated for 30 mins by Lineweaver-Burk plot based Dixon plot analysis
[9] = tested on: Candida albicans; assay: Antifungal activity against Candida albicans AMB-25 incubated for 48 hrs by serial two-fold dilution method; assay type: functional
[10] = tested on: Candida albicans; assay: Antifungal activity against Candida albicans CY1002 by NCCLS-based M27-A broth microdilution method; assay type: functional
[11] = tested on: Aspergillus fumigatus; assay: Antifungal activity against Aspergillus fumigatus CF1003 by NCCLS-based M27-A broth microdilution method; assay type: functional
[12] = tested on: Cryptococcus neoformans; assay: Antifungal activity against Cryptococcus neoformans ATCC 32719 incubated for 24 hrs; assay type: functional
[13] = tested on: Aspergillus flavus; assay: Antifungal activity against Aspergillus flavus ATCC 16870 incubated for 24 hrs; assay type: functional
[14] = tested on: Candida albicans; assay: Antifungal activity against Candida albicans CMCC 76615 incubated for 24 hrs; assay type: functional
[15] = tested on: Aspergillus fumigatus; assay: Antifungal activity against Aspergillus fumigatus GIMCC 3.19 incubated for 24 hrs; assay type: functional
[16] = tested on: Candida albicans; assay: Antifungal activity against Candida albicans incubated for 24 hrs by serial 2-fold dilution method; assay type: functional
[17] = tested on: Nakaseomyces glabratus; assay: Antifungal activity against Candida glabrata incubated for 24 hrs by serial 2-fold dilution method; assay type: functional
[18] = tested on: Candida tropicalis; assay: Antifungal activity against Candida tropicalis incubated for 24 hrs by serial 2-fold dilution method; assay type: functional
[19] = tested on: Nakaseomyces glabratus; assay: Antifungal activity against Candida glabrata MY1381 by CLSI method; assay type: functional
[20] = tested on: Pichia kudriavzevii; assay: Antifungal activity against Candida krusei ATCC 6258 by CLSI method; assay type: functional
[21] = tested on: Clavispora lusitaniae; assay: Antifungal activity against Candida lusitaniae MY1396 by CLSI method; assay type: functional
[22] = tested on: Candida parapsilosis; assay: Antifungal activity against Candida parapsilosis ATCC22019 by CLSI method; assay type: functional; conditions: Lodderomyces parapsilosis
[23] = tested on: Candida albicans; assay: Antifungal activity against Candida albicans Ca2323/ORF6.945 by CLSI method; assay type: functional
[24] = tested on: Candida albicans; assay: Antifungal activity against Candida albicans Ca1055 by CLSI method; assay type: functional
[25] = tested on: Aspergillus fumigatus; assay: Antifungal activity against Aspergillus fumigatus MF5668 by CLSI method; assay type: functional
[26] = Inhibition of Aspergillus fumigatus GWT1 expressed in Saccharomyces cerevisiae using UDP-GlcNAc as substrate incubated for 20 mins followed by palmitoyl-CoA addition and measured after 2 hrs by TLC-based autography
[27] = tested on: Aspergillus fumigatus; assay: Antifungal activity against Aspergillus fumigatus(Tsukuba); assay type: functional
[28] = tested on: Candida albicans; assay: Antifungal activity against Candida albicans CAF2-1; assay type: functional
[29] = Inhibition of Candida albicans GWT1 expressed in Saccharomyces cerevisiae using UDP-GlcNAc as substrate incubated for 20 mins followed by palmitoyl-CoA addition and measured after 2 hrs by TLC-based autography
[30] = tested on: Mucor mucedo; assay: Antifungal activity against Mucor mucedo IF07684 by serial broth dilution method; assay type: functional
[31] = tested on: Mucor mucedo; assay: Antifungal activity against Mucor mucedo IF05776 by serial broth dilution method; assay type: functional
[32] = tested on: Mucor hiemalis; assay: Antifungal activity against Mucor hiemalis IFO9400 by serial broth dilution method; assay type: functional
[33] = Inhibition of Mucor flavus IFO9560 chitin synthase incubated for 6 to 20 hrs by Lineweaver-Burk analysis
[34] = tested on: Mucor mucedo; assay: Antifungal activity against Mucor mucedo IF06750 by serial broth dilution method; assay type: functional
[35] = Antifungal activity against Mucor piriformis IF09416 by serial broth dilution method; assay type: functional
[36] = Antifungal activity against Mucor flavus IFO9560 by serial broth dilution method; assay type: functional
[37] = tested on: Mucor javanicus; assay: Antifungal activity against Mucor javanicus IFO4569 by serial broth dilution method; assay type: functional
[38] = tested on: Mucor racemosus; assay: Antifungal activity against Mucor racemosus IF09255 by serial broth dilution method; assay type: functional

Compound `CCC/C=C/C=C/C=C/C(=O)OC[C@H]1O[C@@H](O[C@H]2[C@H](OC(=O)/C=C/C=C/C[C@H](O)/C=C/C=C/C=C/CCC)[C@@H](O)[C@@]3(OCc4cc(O)cc(O)c43)O[C@@H]2CO)[C@H](O)[C@@H](O)[C@H]1O` has an MIC [1] of 0.1 µg/mL (≈ 0.117 µM), an MIC [2] of 0.1 µg/mL (≈ 0.117 µM) and an MIC [3] of 0.1 µg/mL (≈ 0.117 µM). It also gave an MIC [4] of 0.1 µg/mL (≈ 0.117 µM), an MIC [5] of 0.1 µg/mL (≈ 0.117 µM) and an MIC [6] of 0.1 µg/mL (≈ 0.117 µM).

For `COC(=O)/C=C/C(=O)NC[C@H](N)C(=O)O`, the IC50 [7] was 4.03 µg/mL (≈ 18.6 µM), the Ki [8] was 100 nM and the MIC [9] was greater than 200 µg/mL.

Compound `C[C@@H]([C@H](N)C(=O)N[C@H](C(=O)O)[C@H]1O[C@@H](n2ccc(=O)[nH]c2=O)[C@H](O)[C@@H]1O)[C@H](O)c1ccc(O)cn1` [NIKKOMYCIN] has an MIC50 [10] of 12 µg/mL (≈ 24.2 µM) and an MIC50 [11] of 11 µg/mL (≈ 22.2 µM).

With `O=C(Nc1c(O)c2ccccc2oc1=O)[C@H](O)[C@@H](O)C(=O)N1CCN(c2ccc(Cl)cc2)CC1` the MIC [12] was 4 µg/mL (≈ 8.2 µM), the MIC [13] was 4 µg/mL (≈ 8.2 µM) and the MIC [14] was 4 µg/mL (≈ 8.2 µM). It also gave an MIC [15] of 4 µg/mL (≈ 8.2 µM).

In the case of `COC(=O)/C=C/C(=O)NC[C@H](NC(=O)CN(CCOC(C)=O)CCOC(C)=O)C(=O)OCOC(=O)Cc1ccccc1.Cl`, the MIC [16] is reported as 31.3 µg/mL, the MIC [17] is reported as 125 µg/mL and the MIC [18] is reported as 31.3 µg/mL.

In the case of `C=C1[C@@H]2C[C@@H]3[C@H](C(C)C)[C@@H](OC(=O)CC(C)(O)CC(C)CC)C[C@@]3(C)C[C@H]2/C(C)=C\C[C@@H]2[C@@H](C)OC(=O)[C@H](O)[C@]12O` (stereo partly drawn), the MIC [19] is reported as 0.5 µg/mL (≈ 0.87 µM), the MIC [20] is reported as 1 µg/mL (≈ 1.74 µM) and the MIC [21] is reported as 0.25 µg/mL (≈ 0.435 µM). It also gave an MIC [22] of 0.5 µg/mL (≈ 0.87 µM), an MIC [23] of 0.5 µg/mL (≈ 0.87 µM) and an MIC [24] of 0.5 µg/mL (≈ 0.87 µM). The MIC [25] was 0.25 µg/mL (≈ 0.435 µM).

`Nc1ncccc1-c1cc(Cc2ccc(COc3ccccn3)cc2)no1` [MANOGEPIX] showed an IC50 [26] of 600 nM, an MIC [27] of 0.2 µg/mL (≈ 0.558 µM) and an MIC [28] of 0.05 µg/mL (≈ 0.14 µM). The IC50 [29] was 270 nM.

In the case of `C[C@@H]1C[C@H]2O[C@@H]2/C=C\C=C\C(=O)Cc2c(Cl)c(O)cc(O)c2C(=O)O1` [RADICICOL], the MIC [30] is reported as 0.39 µg/mL (≈ 1.07 µM), the MIC [31] is reported as 0.39 µg/mL (≈ 1.07 µM) and the MIC [32] is reported as 0.39 µg/mL (≈ 1.07 µM). It also gave a Ki [33] of 87000 nM, an MIC [34] of 0.39 µg/mL (≈ 1.07 µM) and an MIC [35] of 0.39 µg/mL (≈ 1.07 µM). For the same compound, the MIC [36] was 0.39 µg/mL (≈ 1.07 µM), the MIC [37] was 0.39 µg/mL (≈ 1.07 µM) and the MIC [38] was 0.39 µg/mL (≈ 1.07 µM).
